Columns and labels:
Experiment in all cases: relative viability (nuclei count vs DMSO), 5 days (fraction); higher = more cells survive
NCI-H23 = test system: NCI-H23
Summary of the method: (§1)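 For relative viability, nuclei counts in treated wells were divided by those in vehicle wells. Lung cancer cell lines had been pin-tool dosed in 1536-well plates the day after seeding and cultured for 5 days, then fixed and stained in one step (final 0.05% Triton X-100, 1% formaldehyde, 1 ug/ml Hoechst) and imaged at 4×. Doses were one drug alone or a fixed anchor-drug dose plus five library-drug doses (not always all listed) in √10 steps, and values are duplicate-plate medians.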

EMC-BAC-2 = test system: EMC-BAC-2
Summary of the method: as §1

LU99A = test system: LU99A
Summary of the method: as §1

NCI-H1666 = test system: NCI-H1666
Summary of the method: as §1

HCC-44 = test system: HCC-44
Summary of the method: as §1

LK-2 = test system: LK-2
Summary of the method: as §1

LXF-289 = test system: LXF-289
Summary of the method: as §1

RERF-LC-KJ = test system: RERF-LC-KJ
Summary of the method: as §1

SW 1573 = test system: SW 1573
Summary of the method: as §1

ChaGo-K-1 = test system: ChaGo-K-1
Summary of the method: as §1

SW 900 = test system: SW 900
Summary of the method: as §1

LOU-NH91 = test system: LOU-NH91
Summary of the method: as §1

HCC-366 = test system: HCC-366
Summary of the method: as §1

NCI-H3122 = test system: NCI-H3122
Summary of the method: as §1

EPLC-272H = test system: EPLC-272H
Summary of the method: as §1

SK-LU-1 = test system: SK-LU-1
Summary of the method: as §1

NCI-H2126 = test system: NCI-H2126
Summary of the method: as §1

NCI-H2405 = test system: NCI-H2405
Summary of the method: as §1

NCI-H1975 = test system: NCI-H1975
Summary of the method: as §1

HCC-78 = test system: HCC-78
Summary of the method: as §1

HCC-827 = test system: HCC-827
Summary of the method: as §1

NCI-H2085 = test system: NCI-H2085
Summary of the method: as §1

LCLC-103H = test system: LCLC-103H
Summary of the method: as §1

C[C@@H]1CN(CC(=O)Nc2ccc3c(c2)Cc2cccc(-c4cc(=O)cc(N5CCOCC5)o4)c2S3)C[C@H](C)O1 + CC(=O)Nc1cccc(-n2c(=O)n(C3CC3)c(=O)c3c(Nc4ccc(I)cc4F)n(C)c(=O)c(C)c32)c1 [Trametinib] (partner 0.02 µM)
relative viability (NCI-H23; first compound 0.04 µM): 0.356 | relative viability (NCI-H23; first compound 0.1265 µM): 0.348 | relative viability (NCI-H23; first compound 0.4 µM): 0.336 | relative viability (NCI-H23; first compound 4 µM): 0.286 | relative viability (EMC-BAC-2; first compound 0.04 µM): 0.891 | relative viability (EMC-BAC-2; first compound 0.1265 µM): 0.892 | relative viability (EMC-BAC-2; first compound 0.4 µM): 0.782 | relative viability (EMC-BAC-2; first compound 4 µM): 0.688 | relative viability (LU99A; first compound 0.04 µM): 0.508 | relative viability (LU99A; first compound 0.1265 µM): 0.534 | relative viability (LU99A; first compound 0.4 µM): 0.587 | relative viability (LU99A; first compound 4 µM): 0.59 | relative viability (NCI-H1666; first compound 0.04 µM): 0.881 | relative viability (NCI-H1666; first compound 0.1265 µM): 0.924 | relative viability (NCI-H1666; first compound 0.4 µM): 0.91 | relative viability (NCI-H1666; first compound 4 µM): 0.738 | relative viability (HCC-44; first compound 0.04 µM): 1.05 | relative viability (HCC-44; first compound 0.1265 µM): 1.03 | relative viability (HCC-44; first compound 0.4 µM): 1.1 | relative viability (HCC-44; first compound 4 µM): 1.03 | relative viability (LK-2; first compound 0.04 µM): 0.874 | relative viability (LK-2; first compound 0.1265 µM): 0.756 | relative viability (LK-2; first compound 0.4 µM): 0.709 | relative viability (LK-2; first compound 4 µM): 0.912 | relative viability (LXF-289; first compound 0.04 µM): 0.653 | relative viability (LXF-289; first compound 0.1265 µM): 0.682 | relative viability (LXF-289; first compound 0.4 µM): 0.658 | relative viability (LXF-289; first compound 4 µM): 0.676 | relative viability (RERF-LC-KJ; first compound 0.04 µM): 0.874 | relative viability (RERF-LC-KJ; first compound 0.1265 µM): 0.796 | relative viability (RERF-LC-KJ; first compound 0.4 µM): 0.757 | relative viability (RERF-LC-KJ; first compound 4 µM): 0.695 | relative viability (SW 1573; first compound 0.04 µM): 0.646 | relative viability (SW 1573; first compound 0.1265 µM): 0.564 | relative viability (SW 1573; first compound 0.4 µM): 0.572 | relative viability (SW 1573; first compound 4 µM): 0.627 | relative viability (ChaGo-K-1; first compound 0.04 µM): 0.868 | relative viability (ChaGo-K-1; first compound 0.1265 µM): 0.859 | relative viability (ChaGo-K-1; first compound 0.4 µM): 0.879 | relative viability (ChaGo-K-1; first compound 4 µM): 0.871 | relative viability (SW 900; first compound 0.04 µM): 0.894 | relative viability (SW 900; first compound 0.1265 µM): 0.696 | relative viability (SW 900; first compound 0.4 µM): 0.892 | relative viability (SW 900; first compound 4 µM): 0.572 | relative viability (LOU-NH91; first compound 0.04 µM): 0.812 | relative viability (LOU-NH91; first compound 0.1265 µM): 0.788 | relative viability (LOU-NH91; first compound 0.4 µM): 0.717 | relative viability (LOU-NH91; first compound 4 µM): 0.715 | relative viability (HCC-366; first compound 0.04 µM): 0.43 | relative viability (HCC-366; first compound 0.1265 µM): 0.3 | relative viability (HCC-366; first compound 0.4 µM): 0.244 | relative viability (HCC-366; first compound 4 µM): 0.181 | relative viability (NCI-H3122; first compound 0.04 µM): 0.273 | relative viability (NCI-H3122; first compound 0.1265 µM): 0.263 | relative viability (NCI-H3122; first compound 0.4 µM): 0.212 | relative viability (NCI-H3122; first compound 4 µM): 0.189 | relative viability (EPLC-272H; first compound 0.04 µM): 0.281 | relative viability (EPLC-272H; first compound 0.1265 µM): 0.289 | relative viability (EPLC-272H; first compound 0.4 µM): 0.281 | relative viability (EPLC-272H; first compound 4 µM): 0.263 | relative viability (SK-LU-1; first compound 0.04 µM): 0.518 | relative viability (SK-LU-1; first compound 0.1265 µM): 0.454 | relative viability (SK-LU-1; first compound 0.4 µM): 0.477 | relative viability (SK-LU-1; first compound 4 µM): 0.447 | relative viability (NCI-H2126; first compound 0.04 µM): 0.558 | relative viability (NCI-H2126; first compound 0.1265 µM): 0.573 | relative viability (NCI-H2126; first compound 0.4 µM): 0.561 | relative viability (NCI-H2126; first compound 4 µM): 0.557 | relative viability (NCI-H2405; first compound 0.04 µM): 0.7 | relative viability (NCI-H2405; first compound 0.1265 µM): 0.651 | relative viability (NCI-H2405; first compound 0.4 µM): 0.59 | relative viability (NCI-H2405; first compound 4 µM): 0.66 | relative viability (NCI-H1975; first compound 0.04 µM): 0.382 | relative viability (NCI-H1975; first compound 0.1265 µM): 0.377 | relative viability (NCI-H1975; first compound 0.4 µM): 0.37 | relative viability (NCI-H1975; first compound 4 µM): 0.33 | relative viability (HCC-78; first compound 0.04 µM): 0.713 | relative viability (HCC-78; first compound 0.1265 µM): 0.751 | relative viability (HCC-78; first compound 0.4 µM): 0.859 | relative viability (HCC-78; first compound 4 µM): 0.711 | relative viability (HCC-827; first compound 0.04 µM): 0.541 | relative viability (HCC-827; first compound 0.1265 µM): 0.51 | relative viability (HCC-827; first compound 0.4 µM): 0.491 | relative viability (HCC-827; first compound 4 µM): 0.513 | relative viability (NCI-H2085; first compound 0.04 µM): 0.51 | relative viability (NCI-H2085; first compound 0.1265 µM): 0.532 | relative viability (NCI-H2085; first compound 0.4 µM): 0.483 | relative viability (NCI-H2085; first compound 4 µM): 0.465 | relative viability (LCLC-103H; first compound 0.04 µM): 0.668 | relative viability (LCLC-103H; first compound 0.1265 µM): 0.629 | relative viability (LCLC-103H; first compound 0.4 µM): 0.68 | relative viability (LCLC-103H; first compound 4 µM): 0.693

Source: the supplement of paper PMC10307832
